From ChEMBL document CHEMBL3991601, “The target landscape of clinical kinase drugs” (Science, 2017) come the findings set out here.

The source made the active and inactive calls. Some results are limits rather than exact numbers.

The target of test [1] is cAMP-dependent protein kinase type II-alpha regulatory subunit (Homo sapiens, UniProt P13861).
Test [2] concerns the target T1, Serine/threonine-protein kinase TAO2 (Homo sapiens, UniProt Q9UL54).
T1 sequence (Q9UL54 whole entry): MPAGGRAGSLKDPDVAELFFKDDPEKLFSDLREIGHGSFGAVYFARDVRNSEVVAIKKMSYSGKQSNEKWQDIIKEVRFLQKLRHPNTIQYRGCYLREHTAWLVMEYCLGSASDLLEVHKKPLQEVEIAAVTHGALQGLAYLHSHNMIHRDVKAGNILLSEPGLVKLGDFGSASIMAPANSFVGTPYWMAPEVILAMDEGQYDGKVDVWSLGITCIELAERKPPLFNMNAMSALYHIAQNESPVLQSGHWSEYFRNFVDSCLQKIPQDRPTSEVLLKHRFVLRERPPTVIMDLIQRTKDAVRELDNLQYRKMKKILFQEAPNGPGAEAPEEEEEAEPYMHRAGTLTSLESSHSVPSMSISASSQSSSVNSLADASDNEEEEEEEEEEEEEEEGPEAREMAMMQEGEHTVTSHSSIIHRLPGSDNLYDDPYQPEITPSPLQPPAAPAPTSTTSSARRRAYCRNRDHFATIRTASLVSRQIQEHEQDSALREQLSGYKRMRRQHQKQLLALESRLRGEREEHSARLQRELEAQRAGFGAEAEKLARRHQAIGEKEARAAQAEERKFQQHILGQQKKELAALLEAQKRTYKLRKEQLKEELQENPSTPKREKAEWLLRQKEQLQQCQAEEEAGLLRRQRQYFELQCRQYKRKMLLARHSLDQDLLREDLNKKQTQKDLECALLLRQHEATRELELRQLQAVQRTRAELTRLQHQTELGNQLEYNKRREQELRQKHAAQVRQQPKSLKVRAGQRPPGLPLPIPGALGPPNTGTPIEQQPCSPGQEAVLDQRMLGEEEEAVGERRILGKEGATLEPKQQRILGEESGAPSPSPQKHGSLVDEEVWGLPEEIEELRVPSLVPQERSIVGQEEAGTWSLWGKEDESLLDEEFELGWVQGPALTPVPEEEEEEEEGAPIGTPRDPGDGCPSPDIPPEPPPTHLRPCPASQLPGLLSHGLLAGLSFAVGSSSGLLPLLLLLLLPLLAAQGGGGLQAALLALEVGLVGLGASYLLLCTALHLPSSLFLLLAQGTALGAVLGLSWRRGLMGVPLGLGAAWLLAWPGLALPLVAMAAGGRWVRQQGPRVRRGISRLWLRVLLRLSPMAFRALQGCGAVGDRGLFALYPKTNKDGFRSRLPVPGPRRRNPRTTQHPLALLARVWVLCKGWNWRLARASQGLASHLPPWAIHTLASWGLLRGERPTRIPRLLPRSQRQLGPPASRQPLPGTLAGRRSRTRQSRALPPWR

The target of test [3] is Dual specificity mitogen-activated protein kinase kinase 2 (Homo sapiens, UniProt P36507).
Sequence of Dual specificity mitogen-activated protein kinase kinase 2 (P36507 whole entry): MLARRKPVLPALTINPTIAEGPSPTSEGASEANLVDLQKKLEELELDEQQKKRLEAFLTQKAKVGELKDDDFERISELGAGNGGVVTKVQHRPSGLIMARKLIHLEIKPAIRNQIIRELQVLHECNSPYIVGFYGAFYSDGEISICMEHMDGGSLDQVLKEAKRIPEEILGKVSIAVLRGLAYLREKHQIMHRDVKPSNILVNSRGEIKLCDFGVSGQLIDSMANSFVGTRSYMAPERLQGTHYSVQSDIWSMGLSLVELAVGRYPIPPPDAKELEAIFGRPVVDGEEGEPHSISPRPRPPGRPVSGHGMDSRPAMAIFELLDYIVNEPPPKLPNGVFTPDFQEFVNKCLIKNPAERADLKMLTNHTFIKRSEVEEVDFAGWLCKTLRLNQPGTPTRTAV
Another test has as its target DNA topoisomerase 2-beta (Homo sapiens, UniProt Q02880).
The target of test [4] is T2, Serine/threonine-protein kinase Nek3 (Homo sapiens, UniProt P51956).
T2 sequence (P51956 whole entry): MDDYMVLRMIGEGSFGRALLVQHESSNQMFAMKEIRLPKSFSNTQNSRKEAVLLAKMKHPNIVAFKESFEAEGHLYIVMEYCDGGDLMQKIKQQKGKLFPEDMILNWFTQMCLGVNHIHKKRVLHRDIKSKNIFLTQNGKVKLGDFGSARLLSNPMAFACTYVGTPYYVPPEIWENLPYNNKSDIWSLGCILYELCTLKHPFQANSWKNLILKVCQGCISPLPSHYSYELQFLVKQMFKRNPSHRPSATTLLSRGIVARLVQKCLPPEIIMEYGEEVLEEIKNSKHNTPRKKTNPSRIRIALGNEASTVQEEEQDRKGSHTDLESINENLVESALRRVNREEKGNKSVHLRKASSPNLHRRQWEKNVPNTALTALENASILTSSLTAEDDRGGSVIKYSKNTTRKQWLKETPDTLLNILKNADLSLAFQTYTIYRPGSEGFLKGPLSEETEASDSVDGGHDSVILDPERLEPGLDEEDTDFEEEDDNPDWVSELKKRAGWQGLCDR

Test [5] addresses RAC-alpha serine/threonine-protein kinase (Homo sapiens, UniProt P31749).
Test [6] has as its target Glycogen synthase kinase-3 beta (Homo sapiens, UniProt P49841).
The next test has as its target Actin-related protein 2 (Homo sapiens, UniProt P61160).
Test [7] concerns the target Receptor-interacting serine/threonine-protein kinase 2 (Homo sapiens, UniProt O43353).
Test [8] deals with T3, Cysteine--tRNA ligase, cytoplasmic (Homo sapiens, UniProt P49589).
T3 sequence (P49589 whole entry): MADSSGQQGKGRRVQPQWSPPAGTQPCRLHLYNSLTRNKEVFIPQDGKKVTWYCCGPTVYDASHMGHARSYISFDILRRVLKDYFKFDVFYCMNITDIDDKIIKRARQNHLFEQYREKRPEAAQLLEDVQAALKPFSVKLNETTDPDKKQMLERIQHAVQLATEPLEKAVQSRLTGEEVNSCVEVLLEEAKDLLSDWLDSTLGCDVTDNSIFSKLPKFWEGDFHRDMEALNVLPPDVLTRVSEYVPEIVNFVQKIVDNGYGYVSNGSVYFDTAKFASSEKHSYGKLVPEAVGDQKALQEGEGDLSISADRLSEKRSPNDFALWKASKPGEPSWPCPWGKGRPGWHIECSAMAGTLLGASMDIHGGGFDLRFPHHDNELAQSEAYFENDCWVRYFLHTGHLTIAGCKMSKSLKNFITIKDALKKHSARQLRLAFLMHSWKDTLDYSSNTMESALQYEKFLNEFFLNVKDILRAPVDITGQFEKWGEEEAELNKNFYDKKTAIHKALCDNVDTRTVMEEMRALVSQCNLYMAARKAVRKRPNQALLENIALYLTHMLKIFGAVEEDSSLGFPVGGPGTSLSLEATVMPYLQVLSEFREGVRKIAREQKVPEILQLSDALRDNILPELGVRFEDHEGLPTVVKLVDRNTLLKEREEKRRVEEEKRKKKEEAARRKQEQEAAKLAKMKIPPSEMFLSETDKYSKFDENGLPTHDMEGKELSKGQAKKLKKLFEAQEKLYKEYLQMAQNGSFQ
Further: in the data inactive means no Kd found up to 30 µM.

Sequence of RAC-alpha serine/threonine-protein kinase (P31749 whole entry): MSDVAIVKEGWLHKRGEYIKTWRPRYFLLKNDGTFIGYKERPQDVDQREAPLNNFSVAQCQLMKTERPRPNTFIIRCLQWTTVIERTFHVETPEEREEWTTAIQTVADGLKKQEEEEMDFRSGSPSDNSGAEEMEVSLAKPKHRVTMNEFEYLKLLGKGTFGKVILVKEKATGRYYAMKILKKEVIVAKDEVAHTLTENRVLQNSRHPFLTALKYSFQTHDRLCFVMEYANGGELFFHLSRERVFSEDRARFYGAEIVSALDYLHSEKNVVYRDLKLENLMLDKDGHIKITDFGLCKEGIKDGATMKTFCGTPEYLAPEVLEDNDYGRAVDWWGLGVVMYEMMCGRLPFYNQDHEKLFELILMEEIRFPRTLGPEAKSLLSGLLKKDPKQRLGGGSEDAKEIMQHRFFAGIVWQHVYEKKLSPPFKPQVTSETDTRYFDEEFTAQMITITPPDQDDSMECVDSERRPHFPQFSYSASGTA
Sequence of cAMP-dependent protein kinase type II-alpha regulatory subunit (P13861 whole entry): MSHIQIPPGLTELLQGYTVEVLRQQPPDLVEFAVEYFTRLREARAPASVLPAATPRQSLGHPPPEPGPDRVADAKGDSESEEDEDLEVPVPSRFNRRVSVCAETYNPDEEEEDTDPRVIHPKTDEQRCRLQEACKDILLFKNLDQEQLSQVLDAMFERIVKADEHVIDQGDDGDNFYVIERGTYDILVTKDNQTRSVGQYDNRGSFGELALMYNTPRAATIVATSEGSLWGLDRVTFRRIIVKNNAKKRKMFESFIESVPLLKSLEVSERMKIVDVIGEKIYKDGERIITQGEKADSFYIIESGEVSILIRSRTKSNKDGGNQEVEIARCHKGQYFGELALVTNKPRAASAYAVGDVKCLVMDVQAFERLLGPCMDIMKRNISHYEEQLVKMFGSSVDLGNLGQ
Sequence of Receptor-interacting serine/threonine-protein kinase 2 (O43353 whole entry): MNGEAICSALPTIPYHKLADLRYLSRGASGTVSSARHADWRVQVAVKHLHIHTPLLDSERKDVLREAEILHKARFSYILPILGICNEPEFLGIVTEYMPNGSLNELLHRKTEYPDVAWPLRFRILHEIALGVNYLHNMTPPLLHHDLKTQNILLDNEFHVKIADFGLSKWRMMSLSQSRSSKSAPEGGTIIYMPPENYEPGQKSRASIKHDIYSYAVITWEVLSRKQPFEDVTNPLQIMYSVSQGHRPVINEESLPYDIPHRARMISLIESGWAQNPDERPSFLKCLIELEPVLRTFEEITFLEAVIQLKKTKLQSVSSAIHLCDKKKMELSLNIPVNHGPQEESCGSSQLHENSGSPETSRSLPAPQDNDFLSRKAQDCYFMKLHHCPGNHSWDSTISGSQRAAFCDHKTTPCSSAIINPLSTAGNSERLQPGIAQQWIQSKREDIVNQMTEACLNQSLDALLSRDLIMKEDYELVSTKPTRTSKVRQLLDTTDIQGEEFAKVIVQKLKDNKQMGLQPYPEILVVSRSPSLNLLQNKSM
Sequence of DNA topoisomerase 2-beta (Q02880 whole entry): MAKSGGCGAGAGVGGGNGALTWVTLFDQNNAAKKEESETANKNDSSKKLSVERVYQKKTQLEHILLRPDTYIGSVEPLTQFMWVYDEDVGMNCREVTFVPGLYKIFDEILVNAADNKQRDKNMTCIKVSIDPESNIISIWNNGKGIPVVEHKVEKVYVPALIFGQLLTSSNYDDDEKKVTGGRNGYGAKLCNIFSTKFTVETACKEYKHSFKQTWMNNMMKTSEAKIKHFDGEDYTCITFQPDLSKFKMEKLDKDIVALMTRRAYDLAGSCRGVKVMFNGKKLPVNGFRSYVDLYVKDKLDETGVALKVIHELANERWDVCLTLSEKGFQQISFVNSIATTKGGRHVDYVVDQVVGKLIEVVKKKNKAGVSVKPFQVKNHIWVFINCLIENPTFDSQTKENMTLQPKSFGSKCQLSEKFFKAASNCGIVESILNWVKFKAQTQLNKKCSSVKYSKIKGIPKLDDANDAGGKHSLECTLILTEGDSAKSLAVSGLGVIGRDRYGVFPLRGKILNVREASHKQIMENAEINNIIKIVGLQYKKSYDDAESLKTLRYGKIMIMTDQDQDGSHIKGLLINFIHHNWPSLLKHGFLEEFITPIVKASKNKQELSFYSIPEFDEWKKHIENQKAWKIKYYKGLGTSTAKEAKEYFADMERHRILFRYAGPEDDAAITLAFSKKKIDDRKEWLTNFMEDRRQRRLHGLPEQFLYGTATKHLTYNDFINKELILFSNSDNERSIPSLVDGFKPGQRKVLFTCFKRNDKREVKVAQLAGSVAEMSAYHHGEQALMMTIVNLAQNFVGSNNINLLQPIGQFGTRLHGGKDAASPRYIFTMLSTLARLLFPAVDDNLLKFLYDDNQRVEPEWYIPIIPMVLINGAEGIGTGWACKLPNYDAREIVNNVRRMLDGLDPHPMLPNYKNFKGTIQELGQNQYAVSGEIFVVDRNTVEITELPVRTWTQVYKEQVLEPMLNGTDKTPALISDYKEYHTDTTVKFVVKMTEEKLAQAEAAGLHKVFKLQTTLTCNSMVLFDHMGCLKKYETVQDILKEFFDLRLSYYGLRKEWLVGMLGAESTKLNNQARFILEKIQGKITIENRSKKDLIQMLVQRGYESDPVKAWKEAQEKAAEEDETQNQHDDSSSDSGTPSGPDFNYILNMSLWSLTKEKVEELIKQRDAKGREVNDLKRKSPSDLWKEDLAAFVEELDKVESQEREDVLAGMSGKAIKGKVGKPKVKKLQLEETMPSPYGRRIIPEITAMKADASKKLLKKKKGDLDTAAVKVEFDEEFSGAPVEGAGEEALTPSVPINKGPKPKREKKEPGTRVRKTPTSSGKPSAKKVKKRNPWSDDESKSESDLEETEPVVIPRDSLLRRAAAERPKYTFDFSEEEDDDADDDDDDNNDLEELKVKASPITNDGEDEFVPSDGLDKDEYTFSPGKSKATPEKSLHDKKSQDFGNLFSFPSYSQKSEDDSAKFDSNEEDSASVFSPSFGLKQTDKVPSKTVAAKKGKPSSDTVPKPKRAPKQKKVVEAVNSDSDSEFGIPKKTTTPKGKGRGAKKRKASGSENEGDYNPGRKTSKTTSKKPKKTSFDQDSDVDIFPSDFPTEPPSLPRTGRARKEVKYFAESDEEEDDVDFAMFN
Sequence of Glycogen synthase kinase-3 beta (P49841 whole entry): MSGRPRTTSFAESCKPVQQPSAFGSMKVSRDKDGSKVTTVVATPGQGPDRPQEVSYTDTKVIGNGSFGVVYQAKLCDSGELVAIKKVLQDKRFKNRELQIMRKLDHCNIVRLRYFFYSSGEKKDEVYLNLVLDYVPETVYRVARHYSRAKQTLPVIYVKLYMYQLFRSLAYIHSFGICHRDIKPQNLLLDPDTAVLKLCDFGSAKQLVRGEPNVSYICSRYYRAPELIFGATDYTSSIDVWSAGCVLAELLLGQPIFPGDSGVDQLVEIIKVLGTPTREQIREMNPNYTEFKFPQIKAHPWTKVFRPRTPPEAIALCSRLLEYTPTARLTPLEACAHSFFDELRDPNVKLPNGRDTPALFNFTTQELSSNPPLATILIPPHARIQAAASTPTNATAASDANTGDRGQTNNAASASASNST

As for `Cc1cccc(-c2nn3c(c2-c2ccnc4ccc(C(N)=O)cc24)CCC3)n1` [GALUNISERTIB], the Kd (in [1]; in test [2]; in [3]; at DNA topoisomerase 2-beta; in test [4]; in [5]) was > 30 µM (inactive) in each case. For the same molecule, the Kd in test [6] is > 30 µM (inactive); at Actin-related protein 2, > 30 µM (inactive); in test [7], 0.038 µM (active); in [8] it was > 30 µM (inactive).
Turning to `O=C(Nc1cc(C(F)(F)F)cc(C(F)(F)F)c1)c1cc(Cl)ccc1O` [IMD-0354], the Kd (in [1]; in [2]; in test [3]; at DNA topoisomerase 2-beta; in [4]; in [5]) was > 30 µM (inactive) each time. Moreover, the Kd (in test [6]; on Actin-related protein 2; in test [7]; in test [8]) was > 30 µM (inactive) throughout.
Regarding `CNC(=O)c1cccc2cc(Oc3ccnc4cc(OCC5(N)CC5)c(OC)cc34)ccc12` [LUCITANIB], the Kd (in [1]; in test [2]; in test [3]; on DNA topoisomerase 2-beta; in [4]; in test [5]) was > 30 µM (inactive) throughout. Further, the Kd was > 30 µM (inactive) in test [6], > 30 µM (inactive) at Actin-related protein 2, 0.199 µM (active) in test [7] and > 30 µM (inactive) in test [8].
Take `CN(C[C@@H]1COCCO1)S(=O)(=O)Nc1ccc2ccc3ncc(-c4cnn(C)c4)cc3c(=O)c2c1` [MK-2461]: the Kd (in test [1]; in test [2]; in test [3]; on DNA topoisomerase 2-beta; in [4]; in test [5]) was > 30 µM (inactive) in each case. Further, the Kd (in [6]; on Actin-related protein 2; in [7]; in test [8]) was > 30 µM (inactive) throughout.
On to `Cn1cc(-c2cnc3ccc4ccc(CS(=O)(=O)NCc5ccccn5)cc4c(=O)c3c2)cn1` [MK-8033], for which the Kd (in test [1]; in [2]; in test [3]; at DNA topoisomerase 2-beta; in test [4]; in test [5]) was > 30 µM (inactive) throughout. Further, the Kd (in test [6]; on Actin-related protein 2; in [7]; in test [8]) was > 30 µM (inactive) each time.
As for `FC(F)(F)c1ccc(/C=C/c2nc(COc3ccc(CCCCn4ccnn4)cc3)co2)cc1` [MUBRITINIB], the Kd (in test [1]; in test [2]; in test [3]; on DNA topoisomerase 2-beta; in test [4]; in test [5]) was > 30 µM (inactive) each time. The Kd (in test [6]; at Actin-related protein 2; in [7]; in [8]) was > 30 µM (inactive) throughout.
`Cc1nc(Nc2n[nH]c3c2CN(C(=O)N[C@H](CN(C)C)c2ccccc2)C3(C)C)c2sccc2n1` [PF-03758309]: the Kd (in test [1]; in test [2]; in test [3]; at DNA topoisomerase 2-beta; in [4]; in [5]) was > 30 µM (inactive) each time. Besides, the Kd is 0.667 µM (active) in [6], > 30 µM (inactive) on Actin-related protein 2, > 30 µM (inactive) in test [7] and > 30 µM (inactive) in test [8].
With `Cc1cnc(NC(=O)Nc2cc(Br)c(C)cc2OC[C@@H]2CNCCO2)cn1` [RABUSERTIB], the Kd (in test [1]; in test [2]; in [3]; at DNA topoisomerase 2-beta; in [4]; in test [5]) was > 30 µM (inactive) in each case. Moreover, the Kd (in [6]; on Actin-related protein 2; in [7]; in test [8]) was > 30 µM (inactive) in each case.
On to `N#CC1(c2ccc(NC(=O)c3cccnc3NCc3ccncc3)cc2)CCCC1` [RIVOCERANIB], for which the Kd (in [1]; in test [2]; in [3]; on DNA topoisomerase 2-beta; in [4]; in test [5]) was > 30 µM (inactive) in each case. In addition, the Kd (in test [6]; on Actin-related protein 2; in [7]; in test [8]) was > 30 µM (inactive) each time.
As to `O=c1[nH]ccc2cc(OC3CCNCC3)ccc12` [SAR-407899 FREE BASE], the Kd (in test [1]; in test [2]; in test [3]; on DNA topoisomerase 2-beta; in [4]; in test [5]) was > 30 µM (inactive) each time. Also, the Kd (in [6]; on Actin-related protein 2; in test [7]; in test [8]) was > 30 µM (inactive) each time.
